Measured values: ChEMBL document CHEMBL5104103 (J Med Chem, 2022)

Assays:
[1] = target: T1, Cytoplasmic tyrosine-protein kinase BMX (Homo sapiens, UniProt P51813); assay: Inhibition of BMX (unknown origin) using peptide substrate in presence of ATP by caliper electrophoresis method
T1 sequence (P51813 whole entry): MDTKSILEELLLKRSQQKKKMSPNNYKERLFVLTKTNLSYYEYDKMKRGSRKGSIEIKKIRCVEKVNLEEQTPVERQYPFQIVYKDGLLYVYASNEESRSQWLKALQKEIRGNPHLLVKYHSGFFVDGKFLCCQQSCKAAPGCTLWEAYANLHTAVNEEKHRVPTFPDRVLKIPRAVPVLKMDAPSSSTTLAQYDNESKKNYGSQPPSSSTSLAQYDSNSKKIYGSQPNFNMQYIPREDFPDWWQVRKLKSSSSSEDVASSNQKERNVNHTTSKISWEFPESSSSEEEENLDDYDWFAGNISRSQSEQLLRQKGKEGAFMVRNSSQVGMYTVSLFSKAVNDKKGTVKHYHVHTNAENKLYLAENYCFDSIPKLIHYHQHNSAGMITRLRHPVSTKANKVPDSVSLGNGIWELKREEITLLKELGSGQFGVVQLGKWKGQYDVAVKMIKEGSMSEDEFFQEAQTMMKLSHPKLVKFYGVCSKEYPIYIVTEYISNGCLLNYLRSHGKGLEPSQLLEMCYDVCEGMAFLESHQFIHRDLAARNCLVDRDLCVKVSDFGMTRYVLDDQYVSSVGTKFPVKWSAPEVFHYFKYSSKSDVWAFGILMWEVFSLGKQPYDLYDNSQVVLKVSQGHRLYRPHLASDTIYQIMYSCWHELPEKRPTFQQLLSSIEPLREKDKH

[2] = Oral bioavailability in rat at 20 mg/kg; assay type: ADME, organism-based; details: in vivo
[3] = Inhibition of anti-IgM-stimulated CD20+ B cell activation in human whole blood assessed as measuring CD69 expression level pretreated for 1 hr followed by anti-IgM stimulation measured after 18 hrs by flow cytometry
[4] = AUC in rat at 20 mg/kg, po or 2 mg/kg, iv; assay type: ADME, organism-based; design: dose 20 mg/kg, route po; details: in vivo
[5] = Permeability across basolateral to apical membrane in human Caco-2 cells; assay type: ADME, cell-based; details: read-out: permeability
[6] = target: T2, Tyrosine-protein kinase TXK (Homo sapiens, UniProt P42681); assay: Inhibition of RLK (unknown origin) using peptide substrate in presence of ATP by caliper electrophoresis method
T2 sequence (P42681 whole entry): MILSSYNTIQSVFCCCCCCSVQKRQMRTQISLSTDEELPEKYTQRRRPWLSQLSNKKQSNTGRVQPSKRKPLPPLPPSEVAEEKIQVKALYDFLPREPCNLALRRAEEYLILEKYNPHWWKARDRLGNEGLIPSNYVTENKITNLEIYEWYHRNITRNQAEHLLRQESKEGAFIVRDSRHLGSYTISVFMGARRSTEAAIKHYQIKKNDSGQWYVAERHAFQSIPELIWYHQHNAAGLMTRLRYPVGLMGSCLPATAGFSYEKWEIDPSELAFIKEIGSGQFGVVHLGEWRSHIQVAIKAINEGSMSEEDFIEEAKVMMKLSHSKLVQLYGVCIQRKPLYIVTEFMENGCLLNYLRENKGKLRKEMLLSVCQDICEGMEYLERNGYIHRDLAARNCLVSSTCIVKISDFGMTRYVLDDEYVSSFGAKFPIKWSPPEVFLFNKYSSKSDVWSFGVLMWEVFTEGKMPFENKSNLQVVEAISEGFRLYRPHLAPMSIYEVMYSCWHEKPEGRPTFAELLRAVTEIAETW

[7] = target: Tyrosine-protein kinase Blk (Homo sapiens, UniProt P51451); assay: Inhibition of BLK (unknown origin) using peptide substrate in presence of ATP by caliper electrophoresis method
[8] = target: T3, Tyrosine-protein kinase ITK/TSK (Homo sapiens, UniProt Q08881); assay: Inhibition of ITK (unknown origin) using peptide substrate in presence of ATP by caliper electrophoresis method
T3 sequence (Q08881 whole entry): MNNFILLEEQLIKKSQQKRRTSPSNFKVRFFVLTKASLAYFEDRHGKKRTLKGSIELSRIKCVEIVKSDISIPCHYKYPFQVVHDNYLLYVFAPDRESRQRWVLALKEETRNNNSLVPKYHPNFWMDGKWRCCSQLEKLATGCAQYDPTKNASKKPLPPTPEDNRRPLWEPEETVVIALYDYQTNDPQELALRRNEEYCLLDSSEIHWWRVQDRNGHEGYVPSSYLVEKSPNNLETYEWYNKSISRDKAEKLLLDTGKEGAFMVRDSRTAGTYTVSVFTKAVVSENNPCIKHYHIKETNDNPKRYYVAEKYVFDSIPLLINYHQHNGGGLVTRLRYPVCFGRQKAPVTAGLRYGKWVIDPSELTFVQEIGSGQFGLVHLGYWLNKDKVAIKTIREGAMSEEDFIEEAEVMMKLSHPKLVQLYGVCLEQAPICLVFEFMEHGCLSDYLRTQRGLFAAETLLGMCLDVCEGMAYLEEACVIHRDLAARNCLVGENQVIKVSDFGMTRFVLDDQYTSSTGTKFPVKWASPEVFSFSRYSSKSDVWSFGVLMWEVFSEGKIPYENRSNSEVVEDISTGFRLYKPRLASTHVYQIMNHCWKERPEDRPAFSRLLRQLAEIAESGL

[9] = Cmax in rat at 20 mg/kg, po or 2 mg/kg, iv; assay type: ADME, organism-based; design: dose 20 mg/kg, route po; details: in vivo

Sequence of Tyrosine-protein kinase Blk (P51451 whole entry): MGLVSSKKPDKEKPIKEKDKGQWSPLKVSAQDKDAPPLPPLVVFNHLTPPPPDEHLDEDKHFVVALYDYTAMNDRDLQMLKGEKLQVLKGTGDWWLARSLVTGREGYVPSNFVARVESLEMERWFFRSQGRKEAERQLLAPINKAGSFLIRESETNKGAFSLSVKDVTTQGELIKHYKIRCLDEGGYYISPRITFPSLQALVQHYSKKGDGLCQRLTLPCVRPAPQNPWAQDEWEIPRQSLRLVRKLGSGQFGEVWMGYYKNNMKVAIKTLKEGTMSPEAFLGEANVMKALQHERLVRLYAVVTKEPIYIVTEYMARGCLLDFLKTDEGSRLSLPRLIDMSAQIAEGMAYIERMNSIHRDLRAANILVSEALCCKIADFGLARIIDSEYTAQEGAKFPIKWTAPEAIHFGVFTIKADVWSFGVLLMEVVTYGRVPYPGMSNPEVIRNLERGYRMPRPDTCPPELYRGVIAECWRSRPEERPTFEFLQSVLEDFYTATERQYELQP

IC50 [1]	bioavailability [2]	IC50 [3]	AUC ([4]; read-out: AUC)	Papp B→A [5]	IC50 [6]	IC50 [7]	IC50 [8]	Cmax [9]	F ([2]; po, 20 mg/kg)	AUC [4]	SMILES
10.1 nM	17.3%	149 nM	478 ng·h/mL	16.5 ×10⁻⁶ cm/s	44.8 nM	92 nM	> 5000 nM	406 ng/mL	–	–	CC(C)(/C=C(/C#N)C(=O)N1CCC[C@@H]1Cn1nc(-c2ccc(Oc3ccccc3)cc2F)c2c(N)ncnc21)N1CCOCC1
1.8 nM	–	216 nM	–	0.6 ×10⁻⁶ cm/s	3.4 nM	2.2 nM	303 nM	326 ng/mL	21.1%	1071 ng·h/mL	CC(C)(C)/C=C(\C#N)C(=O)N1CCC[C@@H](n2nc(-c3ccc(Oc4ccccc4)cc3F)c3c(N)ncnc32)C1 [ATUZABRUTINIB]
0.6 nM	20.2%	117 nM	568 ng·h/mL	13.5 ×10⁻⁶ cm/s	1.2 nM	0.5 nM	110 nM	96.5 ng/mL	–	–	CN1CCN(C(C)(C)/C=C(\C#N)C(=O)N2CCC[C@@H](n3nc(-c4ccc(Oc5ccccc5)cc4F)c4c(N)ncnc43)C2)CC1
